The source of these data is patent US20210127726A1, “METHODS FOR IMPROVING THE SOLUBILITY OF STEVIOL GLYCOSIDE MIXTURES, AND USES” (The Coca-Cola Company, priority 2018, published 2021).

The nature of the series: Aqueous solubility of steviol glycosides and blends. It is filed as physicochemical. The method, then: A number of methods are known in the art for determining aqueous solubility. In one such method, solubility can be determined by a solvent addition method in which a weighed sample is treated with aliquots of aqueous solvent. The mixture is generally vortexed and/or sonicated between additions to facilitate dissolution. Complete dissolution of the test material is determined by visual inspection. Solubility is calculated based on the total solvent used to provide complete dissolution.
Another method for determining solubility is by measuring the turbidity (NTU units) of a composition using a turbidimeter, such as HACH 2100 AN. In a typical experiment, a portion of the composition to be measured is added to a portion of aqueous solvent (or visa versa) at room temperature. Turbidity is measured after waiting from 2-10 minutes to observe visual dissolution of the portion. Then, another portion of the composition is added, dissolution is observed and turbidity is measured again. This process is repeated until turbidity reaches exceeds beyond acceptable values, typically around 4 NTU-10 NTU. While turbidity measurements can be very useful in determining solubility, it will not detect solids collected on the bottom of a container. Accordingly, it is important to shake the container prior to determining turbidity and confirm a given turbidity measurement with visual inspection of dissolution. […]

With `C=C1C[C@@]23CC[C@H]4[C@@](C)(CCC[C@@]4(C)C(=O)O[C@@H]4O[C@H](CO)[C@@H](O)[C@H](O[C@@H]5O[C@H](CO)[C@@H](O)[C@H](O)[C@H]5O)[C@H]4O[C@@H]4O[C@H](CO)[C@@H](O)[C@H](O)[C@H]4O)[C@@H]2CC[C@]1(O[C@@H]1O[C@H](CO)[C@@H](O)[C@H](O[C@@H]2O[C@H](CO)[C@@H](O)[C@H](O)[C@H]2O)[C@H]1O[C@@H]1O[C@H](CO)[C@@H](O)[C@H](O)[C@H]1O)C3` [Pure reb M, 13-[(2-O-β-D-glucopyranosyl-3-O-β-D-glucopyranosyl-β-D-glucopyranosyl)oxy] ent kaur-16-en-19-oic acid-[(2-O-β-D-glucopyranosyl-3-O-β-D-glucopyranosyl-β-D-glucopyranosyl) ester]], the aqueous solubility turned out to be 0.1 wt %. The result for `C=C1C[C@@]23CC[C@H]4[C@@](C)(CCC[C@@]4(C)C(=O)O[C@@H]4O[C@H](CO)[C@@H](O)[C@H](O)[C@H]4O[C@@H]4O[C@H](CO)[C@@H](O)[C@H](O)[C@H]4O)[C@@H]2CC[C@]1(O[C@@H]1O[C@H](CO)[C@@H](O)[C@H](O[C@@H]2O[C@H](CO)[C@@H](O)[C@H](O)[C@H]2O)[C@H]1O[C@@H]1O[C@H](CO)[C@@H](O)[C@H](O)[C@H]1O)C3` [Pure reb D, rebaudioside D] reads 0.05 wt %.
